Converted amounts (≈) assume the structure as drawn. Where two headings read alike, the source gives them in different places.
Experiments:
[1] = system: Acinetobacter baumannii ATCC 17978; assay: Mouse thigh infection model; assay type: in vivo, BALB/c mice; settings: for Mean Change log CFU/g thigh 72 hr / Mean Change log CFU/g thigh 24 hr: vs. time 0 control; for Mean Log CFU/g thigh 72 hr: 72 hr treatment; for Mean Log CFU/g thigh 24 hr: 24 hr treatment; for efficacy in words, thigh model summary: 24 hr and 72 hr treatment
Protocol: (§1) Groups of 5 female specific-pathogen-free BALB/c mice weighing 18±2 g were used. In the 24 hr model (bacterial counts determined 24 hr after treatment start), mice were rendered neutropenic with cyclophosphamide intraperitoneal (IP) administration conducted at Days −4 (150 mg/kg), and day −1 (100 mg/kg). In the 72 hr model (bacterial counts determined 72 hr after treatment start), animals were rendered persistently neutropenic for the duration of the infection period with cyclophosphamide intraperitoneal (IP) administration conducted at Days −4 (150 mg/kg), −1 (100 mg/kg) and +1 (100 mg/kg). Persistent neutropenia is required to prevent pathogen clearance from thigh tissue in the 74 hr model. Nutritional supplementation (diet gel) plus saline SC injections were provided daily to help animals tolerate the cyclophosphamide treatment.
(§2) On day 0, animals were inoculated intramuscularly (0.1 ml/thigh) with a 1.67×10^4 inoculum count of Acinetobacter baumannii ATCC 17978. Vehicle control (40% Captisol), positive control (tigecycline) or test substances were then administered 2 hr post infection by the subcutaneous (SC) route of administration. Each dosing group consisted of 5 female mice. The MICs of the compounds against the test strain were 8 μg/ml, 2 μg/ml and […] for compound 201, compound 71 and compound 200, respectively. At 26 or 74 hours after inoculation (24 or 72 hr after treatment initiation), animals were euthanized with CO2 asphyxiation and the thigh tissue harvested from each of the test animals. The tissues were homogenized in 3 mL of PBS, pH 7.4 with a homogenizer. Homogenates, 0.1 mL, were used for serial 10-fold dilutions and plated onto NB agar for colony counts. Efficacy is calculated as the change in log CFU/g thigh vs. the time 0 (treatment initiation) control.

[2] = system: A. baumannii ATCC BAA1605; assay: Broth microdilution MIC assay; assay type: cell-based; settings: Acinetobacter baumannii, ATCCBAA1605; CA-MHB, 35° C., 20 hours
Protocol: (§3) The antibacterial activity of FabI inhibitors against select Gram-negative and Gram-positive bacterial species including susceptible and multi-drug resistant A. baumannii, E. coli, K. pneumoniae and S. aureus was tested using the broth microdilution Minimal Inhibitory Concentration (MIC) assay following CLSI guidelines for insoluble compounds. Test articles were serially diluted 2-fold in 100% dimethyl sulfoxide (DMSO) and then diluted 100-fold into cation adjusted Mueller-Hinton broth (CA-MHB) to achieve a 10-point test concentration range in 1% DMSO. Final compound concentrations were 0.016-8 μg/ml for S. aureus or 0.06-32 μg/ml for the Gram-negative species. MIC test plates were then prepared by transferring 100 μl of the final assay medium (test article in CA-MHB, 1% DMSO) into the appropriate wells of a sterile, low binding 96-well polystyrene plate. Direct colony suspension inoculums of the test strains were freshly prepared per CLSI guidelines, and the appropriate test wells were inoculated to achieve a final bacterial cell density of 5×10^5 CFU/ml. Growth control (no test article) and negative control (no bacterial inoculum) wells were also included. Exposure to light was minimized during all stages of assay preparation. […] Bacterial growth was then determined by measuring the optical density at 600 nm (OD600) using a SpectraMax Plus plate-reader spectrophotometer.

E. coli AG100 = assay: Broth microdilution MIC assay; assay type: cell-based; settings: Escherichia coli, CA-MHB, 35° C., 20 hours
Protocol: as §3

K. pneumoniae A6030827 = assay: Broth microdilution MIC assay; assay type: cell-based; settings: Klebsiella pneumoniae, CA-MHB, 35° C., 20 hours
Protocol: as §3

S. aureus ATCC 29213 = assay: Broth microdilution MIC assay; assay type: cell-based; settings: Staphylococcus aureus, ATCC29213; CA-MHB, 35° C., 20 hours
Protocol: as §3

[3] = system: Acinetobacter baumannii ATCC 17978; assay: MIC against the in vivo test strain; assay type: cell-based; settings: A. baumannii ATCC 17978; for MIC: Acinetobacter baumannii, ATCC17978
Protocol: as §3, §2
On day 0, animals were anesthetized with etomidate-lipuro emulsion (20 mg/10 mL; 20 mg/kg dose, IV) and then inoculated intranasally with an A. baumannil ATCC 17978 suspension, 1.36×10^5 CFU/mouse, 0.02 mL/mouse. […] Efficacy is calculated as the change in log CFU/g thigh vs. the time 0 (treatment initiation) control.

[4] = target: FabI enzyme from Acinetobacter baumannii (Acinetobacter baumannii, UniProt D0CAD5); assay: Inhibition of FabI enzyme, rate of NADH consumption; assay type: biochemical
Sequence of FabI enzyme from Acinetobacter baumannii (D0CAD5 entry or part of it): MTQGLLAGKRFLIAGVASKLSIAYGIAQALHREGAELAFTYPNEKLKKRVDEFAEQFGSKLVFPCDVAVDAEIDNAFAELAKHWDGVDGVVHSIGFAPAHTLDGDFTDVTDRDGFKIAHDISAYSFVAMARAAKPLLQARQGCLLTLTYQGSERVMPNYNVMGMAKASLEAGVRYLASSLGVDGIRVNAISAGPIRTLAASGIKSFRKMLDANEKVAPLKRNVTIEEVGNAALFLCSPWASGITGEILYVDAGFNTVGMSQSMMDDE
Protocol: Inhibition of FabI enzyme from Acinetobacter baumannii and Escherichia coli was tested by measuring the rate of NADH consumption (Δabsorbance at 340 nm/min) at 30° C. in 96-well plate format using an automated plate reader in the presence or absence of the test compounds. The assay mixture contained 100 mM Tris-HCl, pH 7.25 (A. baumannii) or 7.5 (E. coli), 100 mM ammonium acetate, 0.02% (A. baumannii) or 0.05% (E. coli) Pluronic F-68, 25 μM crotonyl ACP, 50 μM NADH, 25 pM (A. baumannii) or 50 pM (E. coli) recombinant FabI protein, and 7.5% DMSO. Test compounds were added at concentrations ranging from 0.17 to 10,000 nM in a final well volume of 100 μl. This dose-response inhibitory assay was performed using a 10-point, serial dilution series for each test compound. IC50 values for each test compound were assigned from logistical sigmoid curve-fitting of the inhibition dose response curves.

A. baumannil ATCC 17978 = assay: Mouse lung infection model; assay type: in vivo, BALB/c mice; settings: for Mean change log CFU/g lung 24 hr / Mean change log CFU/g lung 72 hr: vs. time 0 control; for Mean Log CFU/g lung 24 hr: 24 hr treatment; for Mean Log CFU/g lung 72 hr: 72 hr treatment
Protocol: as §1, with “lung” for “thigh”
On day 0, animals were anesthetized with etomidate-lipuro emulsion (20 mg/10 mL; 20 mg/kg dose, IV) and then inoculated intranasally with an A. baumannil ATCC 17978 suspension, 1.36×10^5 CFU/mouse, 0.02 mL/mouse. Vehicle control (40% Captisol), positive control (tigecycline) or test substances were then administered 2 hr post infection by the subcutaneous (SC) route of administration. Each dosing group consisted of 5 female mice. The MICs of the compounds against the test strain were 8 μg/ml and 0.5 μg/ml for compound 201 and compound 200, respectively. At 26 or 74 hours after inoculation (24 or 72 hr after treatment initiation), animals were euthanized with CO2 asphyxiation and the lung tissue harvested from each of the test animals. The tissues were homogenized in 1 ml of PBS, pH 7.4 with a homogenizer. Homogenates, 0.1 mL, were used for serial 10-fold dilutions and plated onto MacConkey II agar for colony counts. Efficacy is calculated as the change in log CFU/g […] vs. the time 0 (treatment initiation) control.

[5] = 25 mg/kg q6h SC, total daily dose 100 mg/kg
[6] = 50 mg/kg q6h SC, total daily dose 200 mg/kg
[7] = following both 24 hr and 72 hr treatment, SC

Q: What does the source list for `Cc1c(CN(C)C(=O)/C=C/c2cnc3c(c2)CC[C@H](N)C(=O)N3)oc2ccccc12.Cl` (single isomer, unassigned) [Compound 71]?
A: Mean Change log CFU/g thigh 72 hr ([1]; 25 mg/kg q6h SC): 2.25 log CFU/g thigh; Mean Log CFU/g thigh 72 hr [1, 5]: 7.09 log CFU/g thigh; Mean Change log CFU/g thigh 24 hr ([1]; 50 mg/kg q6h SC): 0.60 log CFU/g thigh; Mean Change log CFU/g thigh 72 hr ([1]; 50 mg/kg q6h SC): 1.10 log CFU/g thigh; Mean Log CFU/g thigh 24 hr [1, 6]: 5.45 log CFU/g thigh; Mean Log CFU/g thigh 72 hr [1, 6]: 5.95 log CFU/g thigh; efficacy in words, thigh model summary ([1]; SC): very slight efficacy; MIC [2]: ≤ 4 µg/mL; MIC (E. coli AG100): ≤ 4 µg/mL; MIC (K. pneumoniae A6030827): ≤ 4 µg/mL; MIC (S. aureus ATCC 29213): ≤ 4 µg/mL; MIC [3]: 2 µg/mL

Q: How did the “Mean Change log CFU/g thigh 72 hr” value ([1]; 25 mg/kg q6h SC) turn out when `Cc1oc2ccccc2c1CN(C)C(=O)/C=C/c1cnc2c(c1)CC[C@H](N)C(=O)N2` [Compound 200, (S,E)-3-(7-amino-8-oxo-6,7,8,9-tetrahydro-5H-pyrido[2,3-b]azepin-3-yl)-N-methyl-N-((2-methylbenzofuran-3-yl)methyl)acrylamide] was run?
A: The value was −2.27 log CFU/g thigh.

Q: What about the “Mean Log CFU/g thigh 72 hr” value [1, 5] of the same compound?
A: The value was 2.58 log CFU/g thigh.

Q: What about the “Mean Change log CFU/g thigh 24 hr” value ([1]; 50 mg/kg q6h SC) of the same compound?
A: Its value is −2.53 log CFU/g thigh.

Q: What about the “Mean Change log CFU/g thigh 72 hr” value ([1]; 50 mg/kg q6h SC) of the same compound?
A: The value was −2.14 log CFU/g thigh.

Q: What about the “Mean Log CFU/g thigh 24 hr” value [1, 6] of the same compound?
A: Its value is 2.31 log CFU/g thigh.

Q: What about the “Mean Log CFU/g thigh 72 hr” value [1, 6] of the same compound?
A: Its value is 2.71 log CFU/g thigh.

Q: What about the “efficacy (log kill), thigh model” value [1, 7] of the same compound?
A: The value was 2.1-2.4 log kill.

Q: And the MIC [2]?
A: The MIC was at most 4 µg/mL.

Q: And the MIC (E. coli AG100)?
A: The MIC was at most 4 µg/mL.

Q: And the MIC (S. aureus ATCC 29213)?
A: Its MIC is at most 4 µg/mL.

Q: What about the MIC against the test strain [3] of the same compound?
A: The MIC against the test strain was 0.5 µg/mL (≈ 1.24 µM).

Q: And the MIC [3]?
A: Its MIC is 0.5 µg/mL (≈ 1.24 µM).

Q: And the IC50 ([4]; recombinant FabI, 30° C., pH 7.25, read-out: A. baumannii Fabl IC50)?
A: The IC50 was under 10 nM.

Q: What about the “Mean change log CFU/g lung 24 hr” value (A. baumannil ATCC 17978; 25 mg/kg q6h SC) of the same compound?
A: Its value is −2.44 log CFU/g lung.

Q: And the “Mean change log CFU/g lung 72 hr” value (A. baumannil ATCC 17978; 25 mg/kg q6h SC)?
A: The value was −2.21 log CFU/g lung.

Q: What about the “Mean Log CFU/g lung 24 hr” value (A. baumannil ATCC 17978; [5]) of the same compound?
A: The value was 3.86 log CFU/g lung.

Q: And the “Mean Log CFU/g lung 72 hr” value (A. baumannil ATCC 17978; [5])?
A: The value was 4.09 log CFU/g lung.

Q: What about the “Mean change log CFU/g lung 24 hr” value (A. baumannil ATCC 17978; 50 mg/kg q6h SC) of the same compound?
A: Its value is −3.50 log CFU/g lung.

Q: And the “Mean change log CFU/g lung 72 hr” value (A. baumannil ATCC 17978; 50 mg/kg q6h SC)?
A: The value was −3.39 log CFU/g lung.

Q: And the “Mean Log CFU/g lung 24 hr” value (A. baumannil ATCC 17978; [6])?
A: Its value is 2.80 log CFU/g lung.

Q: And the “Mean Log CFU/g lung 72 hr” value (A. baumannil ATCC 17978; [6])?
A: The value was 2.91 log CFU/g lung.

Q: And the “efficacy (log kill), lung model” value (A. baumannil ATCC 17978; [7])?
A: Its value is 2.5-3.5 log kill.

Q: What does the source list for `Cc1c(CN(C)C(=O)/C=C/c2cnc3c(c2)CC(N)C(=O)N3)oc2ccccc12.Cl` (stereo not drawn) [Compound 201, (E)-3-(6-amino-7-oxo-5,6,7,8-tetrahydro-1,8-naphthyridin-3-yl)-N-methyl-N-((3-methylbenzofuran-2-yl)methyl)acrylamide hydrochloride, reference compound]?
A: Mean Change log CFU/g thigh 72 hr ([1]; 25 mg/kg q6h SC): 2.24 log CFU/g thigh; Mean Log CFU/g thigh 72 hr [1, 5]: 7.09 log CFU/g thigh; Mean Change log CFU/g thigh 24 hr ([1]; 50 mg/kg q6h SC): 2.26 log CFU/g thigh; Mean Change log CFU/g thigh 72 hr ([1]; 50 mg/kg q6h SC): 1.86 log CFU/g thigh; Mean Log CFU/g thigh 24 hr [1, 6]: 7.11 log CFU/g thigh; Mean Log CFU/g thigh 72 hr [1, 6]: 6.70 log CFU/g thigh; efficacy in words, thigh model summary ([1]; SC): no efficacy; MIC [2]: 16 µg/mL; MIC (E. coli AG100): 8 µg/mL; MIC [3]: 8 µg/mL; IC50 [4]: 19 nM; Mean change log CFU/g lung 24 hr (A. baumannil ATCC 17978; 25 mg/kg q6h SC): 1.02 log CFU/g lung; Mean change log CFU/g lung 72 hr (A. baumannil ATCC 17978; 25 mg/kg q6h SC): 0.21 log CFU/g lung; Mean Log CFU/g lung 24 hr (A. baumannil ATCC 17978; [5]): 7.32 log CFU/g lung; Mean Log CFU/g lung 72 hr (A. baumannil ATCC 17978; [5]): 6.51 log CFU/g lung; Mean change log CFU/g lung 24 hr (A. baumannil ATCC 17978; 50 mg/kg q6h SC): 0.26 log CFU/g lung; Mean change log CFU/g lung 72 hr (A. baumannil ATCC 17978; 50 mg/kg q6h SC): −0.35 log CFU/g lung; Mean Log CFU/g lung 24 hr (A. baumannil ATCC 17978; [6]): 6.56 log CFU/g lung; Mean Log CFU/g lung 72 hr (A. baumannil ATCC 17978; [6]): 5.95 log CFU/g lung; efficacy in words, lung model summary (A. baumannil ATCC 17978; SC, 24 hr and 72 hr treatment): very slight efficacy

Source: patent US12473283B2, “Compounds and their use” (Debiopharm International S.A., priority 2019, dated 2025)
